ChEMBL document CHEMBL5543106, “Fragment growth-based discovery of novel TNIK inhibitors for the treatment of colorectal cancer” (Eur J Med Chem, 2024)

Assays:
Assay type in all cases: ADME, organism-based
[1] = MRT(0 to t) in BALB/c mouse at 5 mg/kg, iv measured upto 24 hrs by LC-MS/MS analysis; settings: in vivo
[2] = Tmax in BALB/c mouse at 5 mg/kg, iv measured upto 24 hrs by LC-MS/MS analysis; settings: in vivo
[3] = Cmax in BALB/c mouse at 10 mg/kg, po measured upto 24 hrs by LC-MS/MS analysis; settings: in vivo
[4] = Bioavailability in BALB/c mouse at 5 mg/kg, iv measured upto 24 hrs by LC-MS/MS analysis; settings: in vivo
[5] = Tmax in BALB/c mouse at 10 mg/kg, po measured upto 24 hrs by LC-MS/MS analysis; settings: in vivo
[6] = AUC(0 to t) in BALB/c mouse at 10 mg/kg, po measured upto 24 hrs by LC-MS/MS analysis; settings: in vivo
[7] = Apparent volume of distribution in BALB/c mouse at 5 mg/kg, iv measured upto 24 hrs by LC-MS/MS analysis; settings: in vivo, read-out: Vz
[8] = Apparent volume of distribution in BALB/c mouse at 10 mg/kg, po measured upto 24 hrs by LC-MS/MS analysis; settings: in vivo
[9] = Cmax in BALB/c mouse at 5 mg/kg, iv measured upto 24 hrs by LC-MS/MS analysis; settings: in vivo
[10] = AUC(0 to t) in BALB/c mouse at 5 mg/kg, iv measured upto 24 hrs by LC-MS/MS analysis; settings: in vivo
[11] = MRT(0 to t) in BALB/c mouse at 10 mg/kg, po measured upto 24 hrs by LC-MS/MS analysis; settings: in vivo

## Cn1cnc(-c2ccc(F)cc2)c1-c1ccc2ncc(C#CC(C)(C)O)cc2c1
[1]
  MRT last at 24 h: 4.46 h
[2]
  Tmax: 4.98 min
[3]
  Cmax: 5250 ng/mL
[4]
  bioavailability: 84.6%
[5]
  Tmax: 1.17 h
[6]
  AUC(0-t) at 24 h: 45700 ng·h/mL
[7]
  Vd: 0.846 L/kg
[8]
  Vz: 1.41 L/kg
[9]
  Cmax: 6340 ng/mL
[10]
  AUC(0-t) at 24 h: 27000 ng·h/mL
[11]
  MRT last at 24 h: 6.11 h
